Measurements as given in patent US10758534B2 (Vertex Pharmaceuticals Incorporated, priority 2014, dated 2020).

Biological target: T1, F508del (Homo sapiens, UniProt P13569, DEL508-508)
T1 construct: expressed in transfected cells
Test: Protocol 2: FRET membrane potential optical assay (VIPR), identification of correction compounds
Type: cell-based
Details: F508del CFTR modulator activity; compounds of Table 1; read-out: EC30
In short: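 FRET read-out (CC2-DMPE donor, DiSBAC2(3) voltage-sensitive acceptor) of membrane depolarization on VIPR II. Corrector candidates incubated 16 hrs at 37° C. with NIH3T3 cells expressing F508del; temperature correction at 27° C. as positive control; stimulation by 10 μM forskolin, 20 μM genistein, chloride-free gluconate bath.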

T1 sequence (P13569 with tags, fused parts or gaps DEL508-508): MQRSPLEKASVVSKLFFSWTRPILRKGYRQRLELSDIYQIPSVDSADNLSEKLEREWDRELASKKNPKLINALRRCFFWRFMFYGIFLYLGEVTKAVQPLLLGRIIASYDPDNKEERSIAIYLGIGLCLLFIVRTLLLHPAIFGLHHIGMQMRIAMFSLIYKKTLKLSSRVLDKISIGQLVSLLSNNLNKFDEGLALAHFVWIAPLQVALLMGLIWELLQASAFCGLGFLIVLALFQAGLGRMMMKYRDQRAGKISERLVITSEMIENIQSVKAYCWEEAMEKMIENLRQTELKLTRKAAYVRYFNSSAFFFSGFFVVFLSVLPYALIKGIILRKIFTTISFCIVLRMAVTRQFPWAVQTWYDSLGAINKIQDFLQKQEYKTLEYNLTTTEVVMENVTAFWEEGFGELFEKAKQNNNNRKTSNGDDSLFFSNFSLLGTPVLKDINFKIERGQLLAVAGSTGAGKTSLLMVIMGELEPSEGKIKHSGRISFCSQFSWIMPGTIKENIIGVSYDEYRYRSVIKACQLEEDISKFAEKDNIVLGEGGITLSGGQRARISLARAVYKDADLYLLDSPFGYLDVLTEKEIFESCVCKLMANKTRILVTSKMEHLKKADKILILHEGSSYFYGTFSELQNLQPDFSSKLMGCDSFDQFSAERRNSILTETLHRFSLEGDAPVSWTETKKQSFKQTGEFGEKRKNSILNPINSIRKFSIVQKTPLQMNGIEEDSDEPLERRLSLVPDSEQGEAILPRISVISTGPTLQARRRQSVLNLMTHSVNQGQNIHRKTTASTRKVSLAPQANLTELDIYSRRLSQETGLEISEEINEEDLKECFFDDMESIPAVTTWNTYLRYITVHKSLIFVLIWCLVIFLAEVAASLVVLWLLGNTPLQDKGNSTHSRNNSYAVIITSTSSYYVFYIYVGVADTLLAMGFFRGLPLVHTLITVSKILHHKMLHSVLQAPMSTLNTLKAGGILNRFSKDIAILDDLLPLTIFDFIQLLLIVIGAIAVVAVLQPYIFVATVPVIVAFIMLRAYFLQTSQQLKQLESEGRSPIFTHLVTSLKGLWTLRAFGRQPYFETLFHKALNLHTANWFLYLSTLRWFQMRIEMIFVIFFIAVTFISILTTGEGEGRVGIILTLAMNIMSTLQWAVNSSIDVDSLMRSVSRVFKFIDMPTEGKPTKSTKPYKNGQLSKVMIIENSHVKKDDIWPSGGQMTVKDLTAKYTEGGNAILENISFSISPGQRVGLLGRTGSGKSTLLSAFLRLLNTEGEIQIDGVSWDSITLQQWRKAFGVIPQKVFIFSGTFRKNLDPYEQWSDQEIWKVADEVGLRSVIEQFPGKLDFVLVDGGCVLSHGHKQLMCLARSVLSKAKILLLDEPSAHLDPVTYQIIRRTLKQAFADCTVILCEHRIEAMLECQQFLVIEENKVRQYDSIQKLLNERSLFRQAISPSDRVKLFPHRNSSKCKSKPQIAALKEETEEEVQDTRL

SMILES	EC30
CCCOc1cccc(S(=O)(=O)NC(=O)c2cccnc2N2CC(C)CC2(C)C)n1 (stereo not drawn) [Compound 2528, N-[(6-propoxy-2-pyridyl)sulfonyl]-2-(2,2,4-trimethylpyrrolidin-1-yl)pyridine-3-carboxamide]	< 3 µM
CC1CN(c2ncccc2C(=O)NS(=O)(=O)c2cccc(OC3CC4CCC3(C)C4(C)C)n2)C(C)(C)C1 (stereo not drawn) [Compound 2059, N—[[6-(1,7,7-trimethylnorbornan-2-yl)oxy-2-pyridyl]sulfonyl]-2-(2,2,4-trimethylpyrrolidin-1-yl)pyridine-3-carboxamide]	< 3 µM
CC(Oc1ncccc1C(=O)NS(=O)(=O)c1cccc(N)n1)c1ccccc1C(F)(F)F (stereo not drawn) [Compound 2501]	3 to 10 µM
COc1ccc(-c2ccc(C(=O)NS(=O)(=O)c3ccc[nH]c3=O)c(N3C[C@@H](C)CC3(C)C)n2)c(F)c1F [Compound 2567, 6-(2,3-difluoro-4-methoxy-phenyl)-N-[(2-oxo-1H-pyridin-3-yl)sulfonyl]-2-[(4S)-2,2,4-trimethylpyrrolidin-1-yl]pyridine-3-carboxamide]	< 3 µM
COc1cccc(-c2ccc(C(=O)NS(=O)(=O)c3ccccc3)c(N3C[C@@H](C)CC3(C)C)n2)n1 [Compound 2411, N-(benzenesulfonyl)-6-(6-methoxy-2-pyridyl)-2-[(4S)-2,2,4-trimethylpyrrolidin-1-yl]pyridine-3-carboxamide]	< 3 µM
COc1ccc(Oc2cccc(S(=O)(=O)NC(=O)c3cccnc3N3CC(C)CC3(C)C)n2)cc1 (stereo not drawn) [Compound 2239, N—[[6-(4-methoxyphenoxy)-2-pyridyl]sulfonyl]-2-(2,2,4-trimethylpyrrolidin-1-yl)pyridine-3-carboxamide]	< 3 µM
CC1CN(c2ncccc2C(=O)NS(=O)(=O)c2cccc(Nc3cccc(OC(F)(F)F)c3)n2)C(C)(C)C1 (stereo not drawn) [Compound 2143, N—[[6-[3-(trifluoromethoxy)anilino]-2-pyridyl]sulfonyl]-2-(2,2,4-trimethylpyrrolidin-1-yl)pyridine-3-carboxamide]	< 3 µM
CC1CN(c2ncccc2C(=O)NS(=O)(=O)c2cccc(N3CCN(c4cnccn4)CC3)n2)C(C)(C)C1 (stereo not drawn) [Compound 2254, N—[[6-(4-pyrazin-2-ylpiperazin-1-yl)-2-pyridyl]sulfonyl]-2-(2,2,4-trimethylpyrrolidin-1-yl)pyridine-3-carboxamide]	3 to 10 µM
CC(C)COc1cc(F)cc(-c2ccc(C(=O)NS(=O)(=O)c3cccc(N)n3)c(N3CC(C)C3)n2)c1 [Compound 2117, N-[(6-amino-2-pyridyl)sulfonyl]-6-(3-fluoro-5-isobutoxy-phenyl)-2-(3-methylazetidin-1-yl)pyridine-3-carboxamide]	< 3 µM
CC1CN(c2ncccc2C(=O)NS(=O)(=O)c2cccc(OCC3(C)CC3)n2)C(C)(C)C1 (stereo not drawn) [Compound 2434, N—[[6-[(1-methylcyclopropyl)methoxy]-2-pyridyl]sulfonyl]-2-(2,2,4-trimethylpyrrolidin-1-yl)pyridine-3-carboxamide]	< 3 µM
CC(C)c1ccc(-c2ccc(C(=O)NS(=O)(=O)c3ccc[nH]c3=O)c(N3C[C@@H](C)CC3(C)C)n2)cc1 [Compound 2483, 6-(4-isopropylphenyl)-N-[(2-oxo-1H-pyridin-3-yl)sulfonyl]-2-[(4S)-2,2,4-trimethylpyrrolidin-1-yl]pyridine-3-carboxamide]	< 3 µM
C[C@@H]1CN(c2nc(C3=CCCN(C(=O)CC4CCCCC4)C3)ccc2C(=O)NS(=O)(=O)c2cccc(N)n2)C(C)(C)C1 [Compound 2633, N-[(6-amino-2-pyridyl)sulfonyl]-6-[1-(2-cyclohexylacetyl)-3,6-dihydro-2H-pyridin-5-yl]-2-[(4S)-2,2,4-trimethylpyrrolidin-1-yl]pyridine-3-carboxamide]	3 to 10 µM
CCOc1cc(C)cc(-c2ccc(C(=O)NS(=O)(=O)c3cccnc3N)c(N3C[C@@H](C)CC3(C)C)n2)c1 [Compound 2241, N-[(2-amino-3-pyridyl)sulfonyl]-6-(3-ethoxy-5-methyl-phenyl)-2-[(4S)-2,2,4-trimethylpyrrolidin-1-yl]pyridine-3-carboxamide]	< 3 µM
COc1ccc(-c2ccc(C(=O)NS(=O)(=O)c3cccnc3N)c(N3C[C@@H](C)CC3(C)C)n2)cn1 [Compound 2244, N-[(2-amino-3-pyridyl)sulfonyl]-6-(6-methoxy-3-pyridyl)-2-[(4S)-2,2,4-trimethylpyrrolidin-1-yl]pyridine-3-carboxamide]	< 3 µM

Same assay, conditions: Table 3; compounds of Table 1 as modulators of CFTR activity; protocol not stated

SMILES	EC30
CC(C)COc1cc(F)cc(-c2ccc(C(=O)NS(=O)(=O)c3cccc(N)n3)c(N3C4CCC3CC4)n2)c1 [Compound 420, N-[(6-amino-2-pyridyl)sulfonyl]-2-(7-azabicyclo[2.2.1]heptan-7-yl)-6-(3-fluoro-5-isobutoxy-phenyl)pyridine-3-carboxamide]	+++ (“+++” means <3 uM)
Cc1cc(C)c(Cn2c(C(=O)NS(=O)(=O)c3ccccc3)cc3ccc(Cl)cc32)c(C)c1 [Compound 10, N-(benzenesulfonyl)-6-chloro-1-[(2,4,6-trimethylphenyl)methyl]indole-2-carboxamide]	+++ (“+++” means <3 uM)
Cc1nc(-c2ccc(-c3cc(C(=O)NS(=O)(=O)c4ccccc4)n(Cc4c(C)cccc4C)n3)s2)no1 [Compound 151, N-(benzenesulfonyl)-2-[(2,6-dimethylphenyl)methyl]-5-[5-(5-methyl-1,2,4-oxadiazol-3-yl)-2-thienyl]pyrazole-3-carboxamide]	+++ (“+++” means <3 uM)
Cc1cc(C)c(Cn2nc(C(C)(C)C)cc2C(=O)NS(=O)(=O)c2ccccc2)c(C)c1 [Compound 45, N-(benzenesulfonyl)-5-tert-butyl-2-[(2,4,6-trimethylphenyl)methyl]pyrazole-3-carboxamide]	+++ (“+++” means <3 uM)
Cc1cc(C)c(Oc2nc(-c3ccc(OC(C)C)cc3)ccc2C(=O)NS(=O)(=O)c2ccc[nH]c2=O)c(C)c1 [Compound 494, 6-(4-isopropoxyphenyl)-N-[(2-oxo-1H-pyridin-3-yl)sulfonyl]-2-(2,4,6-trimethylphenoxy)pyridine-3-carboxamide]	+++ (“+++” means <3 uM)
Cc1cc(C)c(Cn2c(C(=O)NS(=O)(=O)c3ccccc3)cc3cc(C)ccc32)c(C)c1 [Compound 248, N-(benzenesulfonyl)-5-methyl-1-[(2,4,6-trimethylphenyl)methyl]indole-2-carboxamide]	+++ (“+++” means <3 uM)
CCOc1ccc(F)c(-c2ccc(C(=O)NS(=O)(=O)c3cccc(N)n3)c(Oc3c(C)cc(C)cc3C)n2)c1 [Compound 599, N-[(6-amino-2-pyridyl)sulfonyl]-6-(5-ethoxy-2-fluoro-phenyl)-2-(2,4,6-trimethylphenoxy)pyridine-3-carboxamide]	+++ (“+++” means <3 uM)
CC(C)COc1cc(F)cc(-c2ccc(C(=O)NS(=O)(=O)c3cccc(O)c3)c(N3CC(C)CC3(C)C)n2)c1 (stereo not drawn) [Compound 395, 6-(3-fluoro-5-isobutoxy-phenyl)-N-(3-hydroxyphenyl)sulfonyl-2-(2,2,4-trimethylpyrrolidin-1-yl)pyridine-3-carboxamide]	+++ (“+++” means <3 uM)
CC(C)COc1cc(F)cc(-c2ccc(C(=O)NS(=O)(=O)c3ccn[nH]3)c(N3C[C@H](C)C[C@H](C)C3)n2)c1 [Compound 642, 2-[(3R,5S)-3,5-dimethyl-1-piperidyl]-6-(3-fluoro-5-isobutoxy-phenyl)-N-(1H-pyrazol-5-ylsulfonyl)pyridine-3-carboxamide]	+++ (“+++” means <3 uM)
Cc1cc(C)c(Cn2nc(C(C)(C)C)cc2C(=O)NS(=O)(=O)c2cccc3c2ccn3CCO)c(C)c1 [Compound 188, 5-tert-butyl-N-[1-(2-hydroxyethyl)indol-4-yl]sulfonyl-2-[(2,4,6-trimethylphenyl)methyl]pyrazole-3-carboxamide]	+++ (“+++” means <3 uM)
CCC1(COc2nc(-c3cc(F)cc(OCC(C)C)c3)ccc2C(=O)NS(=O)(=O)c2cccc(N)n2)COC1 [Compound 618, N-[(6-amino-2-pyridyl)sulfonyl]-2-[(3-ethyloxetane-3-yl)methoxy]-6-(3-fluoro-5-isobutoxy-phenyl)pyridine-3-carboxamide]	++ (“++” means between 3 uM and 10 uM)
Cc1cc(C)c(CN2Cc3ccccc3C2C(=O)NS(=O)(=O)c2ccccc2N)c(C)c1 (stereo not drawn) [Compound 230, N-(2-aminophenyl)sulfonyl-2-[(2,4,6-trimethylphenyl)methyl]isoindoline-1-carboxamide]	++ (“++” means between 3 uM and 10 uM)
Cc1cc(C)c(Oc2nc(-c3ccccc3)ccc2C(=O)NS(=O)(=O)c2cccc(NCCO)n2)c(C)c1 [Compound 595, N-[[6-(2-hydroxyethylamino)-2-pyridyl]sulfonyl]-6-phenyl-2-(2,4,6-trimethylphenoxy)pyridine-3-carboxamide]	+++ (“+++” means <3 uM)
CC(C)Oc1ccc(-c2ccc(C(=O)NS(=O)(=O)c3cccc(N)n3)c(N3CC[C@H](C)C3(C)C)n2)cn1 [Compound 557, N-[(6-amino-2-pyridyl)sulfonyl]-6-(6-isopropoxy-3-pyridyl)-2-[(3S)-2,2,3-trimethylpyrrolidin-1-yl]pyridine-3-carboxamide]	+++ (“+++” means <3 uM)
COc1ccccc1S(=O)(=O)NC(=O)c1ccc(C(C)(C)C)nc1Oc1c(C)cc(C)cc1C [Compound 115, 6-tert-butyl-N-(2-methoxyphenyl)sulfonyl-2-(2,4,6-trimethylphenoxy)pyridine-3-carboxamide]	+++ (“+++” means <3 uM)
CCN(CC)c1ccc(-c2cc(C(=O)NS(=O)(=O)c3ccccc3)n(Cc3c(C)cccc3C)n2)cc1 [Compound 162, N-(benzenesulfonyl)-5-[4-(diethylamino)phenyl]-2-[(2,6-dimethylphenyl)methyl]pyrazole-3-carboxamide]	+++ (“+++” means <3 uM)
